# Data: patent US20250074873A1, “COMPOUNDS” (Psylo Pty Ltd, priority 2021, published 2025)
# Read-outs that look alike come from different tables or passages of the source.
# Legend:
# Format in all cases: cell-based
# [1] = target: T1, 5-HT2A receptor (Homo sapiens, UniProt P28223); assay: FLIPR Ca2+ flux functional assay, 5-HT2A agonist activity
# T1 construct: host or cells: HEK293
# Procedure: (§1) Functional Assays 5-HT2A, 5-HT2B and 5-HT2C Receptors
# (§2) Activity at 5-HT2A, 5-HT2B and 5-HT2C receptors was determined using a FLIPR Ca2+ flux assay at WuXi AppTec Co. Ltd. (Hong Kong) Discovery Biology Unit according to their standard protocols. Briefly, stably transfected cells expressing the receptor of interest (HEK293 for 5-HT2A and 5-HT2C; CHO-K1 for 5-HT2B) were grown and plated in a 384 well plate and incubated at 37° C. and 5% 002 overnight. A 250 mM stock solution of probenecid in FLIPR calcium assay buffer (10 mL) was freshly prepared and combined with a fluorescent dye (Fluo-4 Direct) to give a final assay concentration of 2.5 mM. Reference compounds were 4-fold serially diluted and the screening compounds were 3-fold serially diluted in 100% DMSO for 10 points using Agilent Bravo, and 750 nL was added to a 384 well compound plate using Echo along with 30 μL assay buffer. The fluorescent dye was then added to the assay plate along with assay buffer to a final volume of 40 μL. The cell plate was incubated for […] at 37° C. and 5% 002 and placed into the FLIPR Tetra along with the compound plate. 10 μL of references and compounds were then transferred from the compound plate into the cell plate and the fluorescent signal was read.
# [2] = target: T2, 5-HT2B receptor (Homo sapiens, UniProt P41595); assay: FLIPR Ca2+ flux functional assay, 5-HT2B agonist activity
# T2 construct: host or cells: CHO-K1
# Procedure: as §1, §2
# [3] = target: T3, 5-HT2C receptor (Homo sapiens, UniProt P28335); assay: FLIPR Ca2+ flux functional assay, 5-HT2C agonist activity
# T3 construct: host or cells: HEK293
# T3 sequence (P28335 33-458): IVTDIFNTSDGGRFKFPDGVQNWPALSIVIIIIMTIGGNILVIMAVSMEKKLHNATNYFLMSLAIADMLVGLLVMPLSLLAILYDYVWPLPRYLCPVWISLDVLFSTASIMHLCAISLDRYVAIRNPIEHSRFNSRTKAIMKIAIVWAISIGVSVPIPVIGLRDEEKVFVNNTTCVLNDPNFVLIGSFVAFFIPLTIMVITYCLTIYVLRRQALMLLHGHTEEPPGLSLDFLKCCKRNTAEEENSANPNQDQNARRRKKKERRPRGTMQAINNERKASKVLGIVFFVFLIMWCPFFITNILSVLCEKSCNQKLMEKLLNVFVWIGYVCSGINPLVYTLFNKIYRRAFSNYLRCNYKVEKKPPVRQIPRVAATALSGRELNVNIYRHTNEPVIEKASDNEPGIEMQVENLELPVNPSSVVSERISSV
# Procedure: as §1, §2
# [4] = agonist activity, Ca2+ flux, stably transfected HEK293 cells
# [5] = agonist activity, Ca2+ flux, stably transfected CHO-K1 cells
# T1 sequence (P28223 whole entry): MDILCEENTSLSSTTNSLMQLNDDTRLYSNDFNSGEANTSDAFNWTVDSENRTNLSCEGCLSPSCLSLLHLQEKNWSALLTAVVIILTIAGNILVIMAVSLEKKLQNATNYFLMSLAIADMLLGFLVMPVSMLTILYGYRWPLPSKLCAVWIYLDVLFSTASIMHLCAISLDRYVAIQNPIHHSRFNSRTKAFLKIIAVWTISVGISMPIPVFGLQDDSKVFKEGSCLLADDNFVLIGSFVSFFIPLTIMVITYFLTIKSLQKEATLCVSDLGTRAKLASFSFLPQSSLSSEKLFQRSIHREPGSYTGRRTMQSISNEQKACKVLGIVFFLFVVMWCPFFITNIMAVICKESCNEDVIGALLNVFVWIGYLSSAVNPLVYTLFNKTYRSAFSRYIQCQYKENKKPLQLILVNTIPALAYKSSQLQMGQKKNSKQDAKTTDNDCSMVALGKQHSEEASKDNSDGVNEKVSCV
# T2 sequence (P41595 whole entry): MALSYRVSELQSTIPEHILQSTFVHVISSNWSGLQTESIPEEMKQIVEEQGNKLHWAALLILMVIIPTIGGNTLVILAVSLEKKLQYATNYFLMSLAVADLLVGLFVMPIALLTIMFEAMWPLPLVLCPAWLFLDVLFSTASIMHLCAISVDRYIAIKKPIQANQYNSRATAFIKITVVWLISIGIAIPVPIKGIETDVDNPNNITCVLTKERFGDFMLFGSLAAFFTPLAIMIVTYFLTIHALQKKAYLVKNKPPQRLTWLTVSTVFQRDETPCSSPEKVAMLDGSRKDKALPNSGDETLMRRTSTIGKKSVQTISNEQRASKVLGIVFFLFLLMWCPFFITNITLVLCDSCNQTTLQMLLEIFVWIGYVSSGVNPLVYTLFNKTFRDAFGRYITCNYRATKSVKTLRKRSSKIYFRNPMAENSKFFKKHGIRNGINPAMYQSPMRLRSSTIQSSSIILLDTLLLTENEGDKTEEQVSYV
Compound,EC50 [1] [nM],"Emax [1, 4] [%]",EC50 [2] [nM],"Emax [2, 5] [%]",EC50 [3] [nM],"Emax [3, 4] [%]","EC50 ([1]; agonist activity, Ca2+ flux, stably transfected HEK293 cells, read-out: 5-HT2A EC50) [nM]","EC50 ([2]; agonist activity, Ca2+ flux, stably transfected CHO-K1 cells, read-out: 5-HT2B EC50) [nM]","EC50 ([3]; agonist activity, Ca2+ flux, stably transfected HEK293 cells, read-out: 5-HT2c EC50) [nM]"
"CN(C)CCc1c[nH]c2cccc(OC(F)(F)F)c12 [Compound P-4, N,N-dimethyl-2-(4-(trifluoromethoxy)-1H-indol-3-yl)ethan-1-amine]",52.8,34.6,> 10000,-0.97,15.9,66.6,–,–,–
"CN(C)CCc1c[nH]c2ccc(OC(F)(F)F)cc12 [Compound P-5, N,N-dimethyl-2-(5-(trifluoromethoxy)-1H-indol-3-yl)ethan-1-amine]",171,40.5,> 10000,-0.27,520,55.1,–,–,–
"CN(C)CCc1c[nH]c2ccc(C(F)(F)F)cc12 [Compound P-15, N,N-dimethyl-2-(5-(trifluoromethyl)-1H-indol-3-yl)ethan-1-amine]",186,28.7,> 10000,7.41,89.7,88.8,–,–,–
"CCC(C)N(C)CCc1c[nH]c2ccc(OC)cc12 (stereo not drawn) [Compound P-16, N-(2-(5-methoxy-1H-indol-3-yl)ethyl)-N-methylbutan-2-amine]",36.9,58.5,> 10000,-1.2,553,59.5,–,–,–
"CCCN(CCc1c[nH]c2ccc(OC)cc12)C(C)C [Compound P-17, N-isopropyl-N-(2-(5-methoxy-1H-indol-3-yl)ethyl)propan-1-amine]",13.8,89,138,69.2,185,82.1,–,–,–
"CCN(CCc1c[nH]c2ccc(OC)cc12)CC(C)C [Compound P-18, N-ethyl-N-(2-(5-methoxy-1H-indol-3-yl)ethyl)-2-methylpropan-1-amine]",47.9,79.5,867,51.8,1130,68.9,–,–,–
"CCC(C)N(CC)CCc1c[nH]c2ccc(OC)cc12 (stereo not drawn) [Compound P-19, N-ethyl-N-(2-(5-methoxy-1H-indol-3-yl)ethyl)butan-2-amine]",33.3,70.3,1400,44.5,933,76.8,–,–,–
"CCC(C)N(C)CCc1c[nH]c2ccccc12 (stereo not drawn) [Compound P-20, N-(2-(1H-indol-3-yl)ethyl)-N-methylbutan-2-amine]",91.2,16.1,> 10000,0.83,646,58.8,–,–,–
"CCC(C)N(CC)CCc1c[nH]c2ccccc12 (stereo not drawn) [Compound P-21, N-(2-(1H-indol-3-yl)ethyl)-N-ethylbutan-2-amine]",148,71.5,> 10000,37.2,974,61.5,–,–,–
"CCN(CCc1c[nH]c2ccccc12)CC(C)C [Compound P-22, N-(2-(1H-indol-3-yl)ethyl)-N-ethyl-2-methylpropan-1-amine]",389,52.8,1140,28,960,58.4,–,–,–
"CCC(C)N(C)CCc1c[nH]c2cccc(OC)c12 (stereo not drawn) [Compound P-23, N-(2-(4-methoxy-1H-indol-3-yl)ethyl)-N-methylbutan-2-amine]",124,50.3,> 10000,-0.21,465,21.7,–,–,–
"CCC(C)N(CC)CCc1c[nH]c2cccc(OC)c12 (stereo not drawn) [Compound P-24, N-ethyl-N-(2-(4-methoxy-1H-indol-3-yl)ethyl)butan-2-amine]",70.2,77.7,444,52.6,964,68.6,–,–,–
"CCN(CCc1c[nH]c2cccc(OC)c12)C(C)C [Compound P-25, N-ethyl-N-(2-(4-methoxy-1H-indol-3-yl)ethyl)propan-2-amine]",121,85.9,459,61.4,676,77.8,–,–,–
"CCCN(CCc1c[nH]c2cccc(OC)c12)C(C)C [Compound P-26, N-isopropyl-N-(2-(4-methoxy-1H-indol-3-yl)ethyl)propan-1-amine]",36.5,81.6,103,96,106,87.1,–,–,–
"CCCN(C)CCc1c[nH]c2ccc(OC(F)(F)F)cc12 [Compound P-34, N-methyl-N-(2-(5-(trifluoromethoxy)-1H-indol-3-yl)ethyl)propan-1-amine]",665,53.7,> 10000,18.9,329,81.7,–,–,–
"Cc1cccc2[nH]cc(CCN(C)C(C)C)c12 [Compound P-42, N-methyl-N-(2-(4-methyl-1H-indol-3-yl)ethyl)propan-2-amine]",39.6,94.7,814,41.4,48.6,91.2,–,–,–
"COc1cccc2[nH]cc(CCN(C)CC(C)C)c12 [Compound P-136, N-(2-(4-methoxy-1H-indol-3-yl)ethyl)-N,2-dimethylpropan-1-amine]",91.5,100,> 10000,-1.63,261,78.5,–,–,–
"CCN(CCc1c[nH]c2cccc(OC)c12)CC(C)C [Compound P-137, N-ethyl-N-(2-(4-methoxy-1H-indol-3-yl)ethyl)-2-methylpropan-1-amine]",85.6,95.8,> 10000,19.4,138,96.2,–,–,–
"CCN(CCc1c[nH]c2cccc(O)c12)C(C)C [Compound P-138, 3-(2-(ethyl(isopropyl)amino)ethyl)-1H-indol-4-ol]",19.9,105,322,53.5,862,83.3,–,–,–
"CCC(C)N(CC)CCc1c[nH]c2cccc(O)c12 (stereo not drawn) [Compound P-139, 3-(2-(sec-butyl(ethyl)amino)ethyl)-1H-indol-4-ol]",54,107,> 10000,15.7,1900,55.2,–,–,–
"CCN(CCc1c[nH]c2cccc(O)c12)CC(C)C [Compound P-140, 3-(2-(ethyl(isobutyl)amino)ethyl)-1H-indol-4-ol]",27.7,97.5,> 10000,17.5,992,95.4,–,–,–
"CCCN(CCc1c[nH]c2cccc(O)c12)C(C)C [Compound P-141, 3-(2-(isopropyl(propyl)amino)ethyl)-1H-indol-4-ol]",13.8,105,330,62.2,422,92,–,–,–
"COc1ccc2[nH]cc(CCN(C)C3CC3)c2c1 [Compound P-162, N-(2-(5-methoxy-1H-indol-3-yl)ethyl)-N-methylcyclopropanamine]",4.83,95.6,≥ 10000,12,10.6,89.2,–,–,–
"COc1ccc2[nH]cc(CCN(C)C3CCC3)c2c1 [Compound P-163, N-(2-(5-methoxy-1H-indol-3-yl)ethyl)-N-methylcyclobutanamine]",25.4,90.5,≥ 10000,2.29,128,75.9,–,–,–
"COc1ccc2[nH]cc(CCN(C)C3COC3)c2c1 [Compound P-164, N-(2-(5-methoxy-1H-indol-3-yl)ethyl)-N-methyloxetan-3-amine]",–,57.5,–,1.26,–,59.9,671,≥ 10000,6280
